The record followed here is ChEMBL document CHEMBL1122476 (J Med Chem, 1983).

This experiment addresses Glutamate receptor ionotropic, AMPA (Rattus norvegicus, UniProt P19490+P19491+P19492+P19493). The experiment is described as follows: Tested for inhibition of Specific DL-[H]Ionotropic glutamate receptor AMPA binding to rat brain membranes. Type of experiment: cell membranes, Membrane.

Each structure is given as a SMILES string.

By IC50 is commonly meant the concentration at which inhibition is half-maximal. A high value points to lower potency. As for `COc1noc(C)c1CC(N)C(=O)O` (stereo unspecified), the IC50 is more than 100 µM.
